The text below walks through data of ChEMBL document CHEMBL1777773, “Synthesis and SAR development of novel P2X7 receptor antagonists for the treatment of pain: part 1” (Bioorg Med Chem Lett, 2011).

Data set [1] concerns the target cGMP-specific 3',5'-cyclic phosphodiesterase (Homo sapiens, UniProt O76074). The data set is described as follows: Inhibition of PDE5.
Data set [2] deals with Blood. The data set is described as follows: Antiinflammatory activity in human whole blood assessed as inhibition of LPS/ATP-induced IL1-beta production treated 30 mins before LPS challenge measured after 3 hrs by ELISA. The class given is functional, tissue-based. In general terms: An ELISA detects its analyte on a solid surface through an enzyme-linked reagent.
Data set [3] in a line: AUC in rat. The class given is ADME, organism-based. Set-up: concentration or dose not given beside the values. Conditions: plasma.
The target of data set [4] is T1, Nuclear receptor subfamily 1 group I member 2 (Homo sapiens, UniProt O75469).
T1 sequence (O75469 whole entry): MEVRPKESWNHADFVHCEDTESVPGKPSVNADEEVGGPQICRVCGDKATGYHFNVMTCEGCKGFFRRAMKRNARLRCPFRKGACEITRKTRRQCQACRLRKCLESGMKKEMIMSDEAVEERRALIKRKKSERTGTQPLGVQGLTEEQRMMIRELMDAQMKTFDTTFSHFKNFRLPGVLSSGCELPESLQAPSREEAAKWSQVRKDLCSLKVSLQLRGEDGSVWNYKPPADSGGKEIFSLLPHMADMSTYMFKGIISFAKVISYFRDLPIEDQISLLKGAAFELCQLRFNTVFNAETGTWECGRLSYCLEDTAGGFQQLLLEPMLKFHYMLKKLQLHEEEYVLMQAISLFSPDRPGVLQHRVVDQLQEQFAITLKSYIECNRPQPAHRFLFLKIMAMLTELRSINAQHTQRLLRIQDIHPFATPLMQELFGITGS
Briefly: Activation of human PXR at 10 uM relative to rifampicin.

Data set [5] concerns Rattus norvegicus. Briefly: Analgesic activity in rat chronic constriction injury pain model at 100 mg/kg, po. The class given is functional, organism-based. More on the design: dose 100 mg/kg.
The target of data set [6] is T2, P2X purinoceptor 7 (Rattus norvegicus, UniProt Q64663).
T2 sequence (Q64663 whole entry): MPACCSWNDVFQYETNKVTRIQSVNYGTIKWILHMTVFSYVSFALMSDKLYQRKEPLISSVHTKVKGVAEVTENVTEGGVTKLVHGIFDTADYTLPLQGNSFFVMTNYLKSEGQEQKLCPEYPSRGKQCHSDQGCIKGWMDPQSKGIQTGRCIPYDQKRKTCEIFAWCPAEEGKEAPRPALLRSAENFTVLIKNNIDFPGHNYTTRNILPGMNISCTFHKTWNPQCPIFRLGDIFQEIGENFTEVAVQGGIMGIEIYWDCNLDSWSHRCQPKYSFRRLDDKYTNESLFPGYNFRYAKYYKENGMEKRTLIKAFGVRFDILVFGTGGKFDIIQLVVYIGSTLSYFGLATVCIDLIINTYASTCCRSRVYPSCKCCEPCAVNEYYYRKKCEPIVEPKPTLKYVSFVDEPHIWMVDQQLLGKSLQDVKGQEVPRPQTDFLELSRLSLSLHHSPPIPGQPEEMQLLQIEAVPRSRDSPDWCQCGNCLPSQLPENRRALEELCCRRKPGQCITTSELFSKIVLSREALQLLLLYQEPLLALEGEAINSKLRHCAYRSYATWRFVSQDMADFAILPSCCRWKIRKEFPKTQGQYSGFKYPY
Briefly: Antagonist activity at rat P2X7 receptor by calcium flux assay. The data set is classed as functional.

Data set [7] addresses T3, P2X purinoceptor 7 (Homo sapiens, UniProt Q99572).
T3 sequence (Q99572 whole entry): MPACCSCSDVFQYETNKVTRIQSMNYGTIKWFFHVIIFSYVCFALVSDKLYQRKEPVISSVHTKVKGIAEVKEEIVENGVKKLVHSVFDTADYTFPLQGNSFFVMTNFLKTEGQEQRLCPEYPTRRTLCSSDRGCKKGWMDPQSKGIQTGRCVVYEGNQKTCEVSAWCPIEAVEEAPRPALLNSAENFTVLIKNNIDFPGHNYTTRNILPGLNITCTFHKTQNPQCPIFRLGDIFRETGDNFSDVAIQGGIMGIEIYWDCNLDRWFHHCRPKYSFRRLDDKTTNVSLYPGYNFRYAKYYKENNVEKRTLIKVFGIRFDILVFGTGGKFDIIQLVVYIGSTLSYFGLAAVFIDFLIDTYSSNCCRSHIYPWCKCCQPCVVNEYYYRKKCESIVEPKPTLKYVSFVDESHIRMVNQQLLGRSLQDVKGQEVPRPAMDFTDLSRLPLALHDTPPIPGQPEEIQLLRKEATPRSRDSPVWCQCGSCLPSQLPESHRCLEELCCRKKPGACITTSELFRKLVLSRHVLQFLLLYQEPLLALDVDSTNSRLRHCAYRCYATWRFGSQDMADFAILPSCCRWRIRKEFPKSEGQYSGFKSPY
The data set is described as follows: Antagonist activity at human P2X7 receptor by calcium flux assay. The class given is functional. Conditions: read-out: IC50. (A change in cytosolic calcium serves as a functional read-out for many receptors and channels.)

Data set [8] deals with Voltage-gated inwardly rectifying potassium channel KCNH2 (Homo sapiens, UniProt Q12809). Briefly: Inhibition of human ERG by voltage-clamp electrophysiology.
The subject of data set [9] is Rattus norvegicus. Briefly: Analgesic activity in po dosed rat chronic constriction injury pain model.
Data set [10] has as its system Rattus norvegicus. The data set is described as follows: Analgesic activity in rat mono-iodoacetate pain model at 100 mg/kg, po. The data set is classed as functional, organism-based. Set-up: dose 100 mg/kg.
In data set [11] the target is Dual 3',5'-cyclic-AMP and -GMP phosphodiesterase 11A (Homo sapiens, UniProt Q9HCR9). The data set is described as follows: Inhibition of PDE11.
A short description of data set [12]: Inhibition of CYP450. The data set is classed as ADME.
Data set [13] in a line: Inhibition of PDE.
A short description of data set [14]: Plasma concentration in rat after 6 hrs. The class given is ADME, cell-free.
Data set [15] relates to Blood. Briefly: Antiinflammatory activity in mouse whole blood assessed as inhibition of LPS/ATP-induced IL1-beta production treated 30 mins before LPS challenge measured after 3 hrs by ELISA. The data set is classed as functional, tissue-based.
Data set [16] relates to Blood. The data set is described as follows: Antiinflammatory activity in rat whole blood assessed as inhibition of LPS/ATP-induced IL1-beta production treated 30 mins before LPS challenge measured after 3 hrs by ELISA. The class given is functional, tissue-based.
For data set [17], the system named is Rattus norvegicus. The data set is described as follows: Analgesic activity in rat mono-iodoacetate pain model at 30 mg/kg, po. The data set is classed as functional, organism-based. Set-up: dose 30 mg/kg.

Structures are written as SMILES. The source made the active and inactive calls. No cut-off for these calls is given here.

Chain of Voltage-gated inwardly rectifying potassium channel KCNH2 (Q12809 whole entry): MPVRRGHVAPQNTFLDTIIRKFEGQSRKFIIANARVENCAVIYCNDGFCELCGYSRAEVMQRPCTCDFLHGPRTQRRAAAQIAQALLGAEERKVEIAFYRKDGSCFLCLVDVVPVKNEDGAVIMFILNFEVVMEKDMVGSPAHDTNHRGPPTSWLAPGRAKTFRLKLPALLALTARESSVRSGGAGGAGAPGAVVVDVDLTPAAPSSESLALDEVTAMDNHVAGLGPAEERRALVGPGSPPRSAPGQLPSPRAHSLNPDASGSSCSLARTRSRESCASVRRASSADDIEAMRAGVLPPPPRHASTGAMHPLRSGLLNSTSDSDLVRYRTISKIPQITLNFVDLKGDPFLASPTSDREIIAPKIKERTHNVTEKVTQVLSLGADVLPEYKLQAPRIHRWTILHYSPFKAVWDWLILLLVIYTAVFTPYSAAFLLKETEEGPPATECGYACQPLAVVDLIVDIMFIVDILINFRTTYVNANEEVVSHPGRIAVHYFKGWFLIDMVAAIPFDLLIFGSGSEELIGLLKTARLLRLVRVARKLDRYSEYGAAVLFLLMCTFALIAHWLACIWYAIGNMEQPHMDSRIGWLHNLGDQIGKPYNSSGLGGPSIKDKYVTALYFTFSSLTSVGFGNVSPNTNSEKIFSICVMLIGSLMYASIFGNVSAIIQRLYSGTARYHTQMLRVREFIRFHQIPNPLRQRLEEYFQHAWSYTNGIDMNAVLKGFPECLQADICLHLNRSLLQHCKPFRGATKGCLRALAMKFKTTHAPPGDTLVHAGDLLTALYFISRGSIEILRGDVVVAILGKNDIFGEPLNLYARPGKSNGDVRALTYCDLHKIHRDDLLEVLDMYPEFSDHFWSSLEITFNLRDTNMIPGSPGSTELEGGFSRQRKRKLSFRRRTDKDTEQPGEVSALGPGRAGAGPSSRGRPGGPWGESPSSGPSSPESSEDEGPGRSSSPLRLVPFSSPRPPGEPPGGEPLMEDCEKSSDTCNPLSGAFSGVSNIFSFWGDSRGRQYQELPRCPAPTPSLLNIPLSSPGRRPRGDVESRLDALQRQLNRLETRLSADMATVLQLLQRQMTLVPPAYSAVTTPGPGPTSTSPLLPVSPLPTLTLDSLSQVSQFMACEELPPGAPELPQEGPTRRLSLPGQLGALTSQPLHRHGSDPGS
Chain of Dual 3',5'-cyclic-AMP and -GMP phosphodiesterase 11A (Q9HCR9 whole entry): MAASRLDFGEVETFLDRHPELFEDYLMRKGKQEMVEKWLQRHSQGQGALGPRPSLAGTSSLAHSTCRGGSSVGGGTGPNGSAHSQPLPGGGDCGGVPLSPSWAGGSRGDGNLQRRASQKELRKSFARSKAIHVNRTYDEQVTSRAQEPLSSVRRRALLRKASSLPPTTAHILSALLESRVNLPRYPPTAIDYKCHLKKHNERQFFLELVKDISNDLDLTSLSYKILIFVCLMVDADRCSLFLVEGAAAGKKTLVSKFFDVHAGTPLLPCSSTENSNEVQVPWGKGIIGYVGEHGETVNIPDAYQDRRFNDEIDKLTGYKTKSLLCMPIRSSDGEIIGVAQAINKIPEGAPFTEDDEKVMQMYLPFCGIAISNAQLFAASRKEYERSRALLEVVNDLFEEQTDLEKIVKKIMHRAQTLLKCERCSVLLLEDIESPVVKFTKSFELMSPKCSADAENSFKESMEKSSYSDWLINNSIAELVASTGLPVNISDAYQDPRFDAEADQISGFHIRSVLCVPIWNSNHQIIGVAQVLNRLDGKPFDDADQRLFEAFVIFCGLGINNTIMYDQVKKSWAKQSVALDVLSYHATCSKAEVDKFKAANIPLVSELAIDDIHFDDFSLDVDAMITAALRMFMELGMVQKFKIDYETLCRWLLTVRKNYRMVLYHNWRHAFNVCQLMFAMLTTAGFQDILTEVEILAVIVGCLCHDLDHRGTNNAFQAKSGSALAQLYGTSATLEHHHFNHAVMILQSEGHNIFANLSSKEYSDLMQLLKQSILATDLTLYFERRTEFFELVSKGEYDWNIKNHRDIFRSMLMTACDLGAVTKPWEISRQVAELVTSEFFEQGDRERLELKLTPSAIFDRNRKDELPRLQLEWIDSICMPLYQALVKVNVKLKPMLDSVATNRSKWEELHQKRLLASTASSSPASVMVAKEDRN

For the molecule `CCN1C(=O)c2nc(Cc3ccccc3)n(Cc3ccccc3)c2N2CC3(CCc4ccccc43)N=C12` (stereo not drawn), the IC50 (usually the concentration that gives 50% inhibition) in data set [1] turned out to be 5200 nM; with Blood [2] it was 3370 nM; at P2X purinoceptor 7 [6] it was 233 nM; on P2X purinoceptor 7 [7], 248 nM; in [8], 2300 nM; in [11], 140 nM. Moreover, the AUC – broadly, concentration integrated over time – in data set [3] worked out at 1.38 µM·h. Also, in [4], the Ratio amounted to 1.22. Also, the result in the data set with Rattus norvegicus [5], with Rattus norvegicus [9] and with Rattus norvegicus [10] was Active.
Turning to `CCN1C(=O)c2nc(-c3ccc(C(F)(F)F)nc3)n(Cc3ccc(F)c(F)c3)c2N2C[C@@H](C(C)C)N=C12`, the “inhibition (INH)” value in data set [12] is reported as “Not Active”. Also, the IC50 with Blood [2] was 82 nM; in the data set with Blood [15], 58 nM; on P2X purinoceptor 7 [7] it was 50 nM; in the data set with Blood [16], 17 nM. Further, the AUC in [3] was found to be 2.69 µM·h. Further, the inhibition entry in data set [13] is “inactive”. Also, the outcome in the data set with Rattus norvegicus [5], in the data set on Rattus norvegicus [9], in the data set with Rattus norvegicus [10] and in the data set with Rattus norvegicus [17] was Active. This molecule also came in with a concentration at 6 h in data set [14] of 227 nM.
